Reference: patent US20190117713A1, “ANTIBACTERIAL COMPOSITION” (FermBiotics Holding ApS, priority 2016, published 2019)

Tested on: streptococcus infection
Experiment: Treatment of a patient suffering from a streptococcus infection (case report)
Settings: treatment repeated 4 times more

## phenoxymethylpenicillinsodium
  Improvement of streptococcus infection after repeated treatment: no significant improvement
